Assay results: US20230099567A1, “COMPOSITION FOR TREATMENT, PREVENTION, OR AMELIORATION OF LYMPHEDEMA” (RAPPELER CO., LTD., priority 2020, published 2023)
Where two headings read alike, the source gives them in different places.

Key:
[1] = system: LPS-induced TNFα production in mouse peritoneal macrophages; experiment: LPS-induced TNFα production in mouse peritoneal macrophages (ELISA); type: cell-based; conditions: for TNFα production inhibitory ability compared with butein (FIG. 1): compound 20 μM, LPS-induced; for TNFα production inhibitory ability compared with butein (FIG. 1) / IC50: mouse peritoneal macrophages; for IC50: 100 ng/ml LPS 24 h, measured twice, mean ± standard deviation, read-out: IC50, dose-dependent inhibition of TNFα production in macrophages; for IC50 value compared with positive control butein: TNFα production in macrophages
Experimental: To isolate peritoneal macrophages, male Balb/c mice were intraperitoneally injected with 2 ml of 3.5% sterile thioglycolate (B D, Sparks, Md., USA) 4 days before being sacrificed. Mice were sacrificed by cervical dislocation, and peritoneal secretory cells were aseptically isolated through peritoneal washing with cold DMEM (HyClone, Logan, Utah, USA) containing 10% FBS (fetal bovine serum; HyClone) and 1% penicillin-streptomycin. After centrifugation, cells were resuspended and counted using a TC20 Cell Counter (Bio-Rad Laboratories, Hercules, Calif., USA). Peritoneal secretory cells were left in a 24-well plate overnight at 37° C., and non-adherent cells were removed. The cells were then stimulated with 100 ng/ml lipopolysaccharide (LPS) for 24 hours. The supernatant was collected during cytokine analysis, and the level of TNFα in the supernatant was measured using BD OptEIA mouse ELISA sets (BD Biosciences, San Diego, Calif., USA) according to the manufacturer's protocol. […] IC50 (μM) values were measured twice, respectively, and expressed as mean±standard deviation.

[2] = Physicochemical properties (pKa, logP, solubility)
Description: Compound 1 is butein and the therapeutic effect on lymphedema thereof is disclosed in Korean Patent Publication No. 10-1533197 (published on Jul. 2, 2015).

[3] = system: lymphedema induced in mice; experiment: Prophylactic effect on lymphedema formation, surgically induced murine lymphedema model (volume); type: in vivo, mouse; conditions: 7th day after surgery, oral administration 7 days before surgery, then once every two days, vs control group
Experimental: All animal tests in the following examples were performed after obtaining approvals by the Institutional Animal Care and Use Committee (IACUC) of Sungkyunkwan University School of Medicine (Approval No.: […]-20150037). All methods were performed according to the approved guidelines. […] Briefly, major lymphatic sites including inguinal lymph nodes, popliteal lymph nodes, deep inguinal lymph nodes and femoral lymphatic vessels were removed, and the lower right leg of the mouse was limitedly cauterized under anesthesia.
Compounds 1, 7m, and 14a were each orally administered to mice for 7 days before surgical induction of lymphedema in mice.
On the other hand, in the control group, the compound 1 treatment group, the compound 7m treatment group, and the compound 14a treatment group, lymphedema was induced through surgery. After surgery, the compounds were administered once every two days.
The volume of lymphedema was measured on the 7th day after surgery, and the size of the lymphedema was recorded using a caliper ruler by a person who was blinded to the treatment status of the mice.

[4] = system: TNFα; experiment: mRNA expression of TNFα in lymphedema tissue; type: in vivo; conditions: 7th day after surgery, mouse
Description: As a result, it was confirmed that the expression level of TNFα mRNA was decreased in the compound 1 treatment group and the compound 14a treatment group (with respect to the control group, *: P<0.05; with respect to compound 1, #: P<0.05).

[5] = system: lymphedema tissue; experiment: Histological (H&E) analysis of lymphedema tissue of the right hind leg; type: in vivo; conditions: 7th day after surgery, right hind leg of mouse
Description: (§1) Tissue samples were collected on the 7th day after surgery to induce lymphedema at a location 15 mm-25 mm from the right leg of the mouse. The harvested tissue samples were fixed with 10% formalin solution, and the specimens were cut to a thickness of 5 μm. Sections were deparaffinized in 100% xylene, rehydrated with a series of 100% ethanol, 95% ethanol, 90% ethanol, 80% ethanol, and 70% ethanol, and washed with water. Sections were reacted with hematoxylin solution at room temperature. After washing in PBS, sections were stained with eosin at room temperature. Images were acquired by a Pannoramic viewer microscope (3[…] Ltd., Hungary). Prepared slides were incubated using anti-mouse PPARγ (Santa Cruz Biotechnology, USA) and Alexa Fluor 488 and DAPI (Life Technologies, USA). Samples were analyzed using a Nikon ECLIPSE 80i microscope (Nikon Instruments Inc., Japan).
In FIG. 3A, the scale bar of the upper panel is 500 μm, and the scale bar of the lower panel is 100 μm.
In FIG. 4A, the scale bar of the upper panel is 200 μm, and the scale bar of the lower panel is 100 μm.

[6] = system: PPARγ; experiment: Immunofluorescence staining of PPARγ in epidermal layer of lymphedema tissue; type: in vivo; conditions: mouse
Description: as §1
In addition, peroxisome […] (PPARγ) is a major regulator of lipogenesis, and as shown in FIG. 4B showing the results of immunofluorescence staining, the distribution of PPARγ in the epidermal layer of lymphedema tissue after treatment with compound 1 and compound 14a was suppressed.

[7] = Pharmacokinetic analysis in mice after I.V. and oral administration; type: in vivo, mouse; conditions: for BA (bioavailability): (AUCpo/AUCiv)×100; for AUC(0-inf) / Cmax: mouse, plasma; for Cmax: read-out: Cmax (maximum plasma concentration)
Experimental: Compounds were administered to 5-week-old male CD-1 mice through 1 mg/kg tail vein administration (administration volume of 5 mL/kg), 20 mg/kg oral administration, and 100 mg/kg oral administration, respectively. Three mice were used for each independent experiment. Blood samples were taken in an amount of 20 μL to 30 μL via the saphenous vein at 5, 15, 30, 60, 120, 180, 360, and 1440 minutes.
In addition, pharmacokinetic parameters were calculated from non-compartmental analysis using Win Non-lin.
In Table 3, T1/2 denotes the terminal half-life, Cmax denotes the maximum plasma concentration, AUC-O denotes the area under the plasma concentration-time curve from time zero to infinity, and indicates exposure concentration of whole blood, and BA represents bioavailability expressed as (AUCpo/AUCiv)×100. […] Cmax and AUC∞ are mean±SD values obtained from three male ICR mice. Regarding blood exposure during systemic circulation of the compound, the compound was orally administered at an amount of 100 mg/kg, and then, AUC (area under the curve) was measured, and the obtained measurements were compared.

[8] = system: PPARγ and a target protein Fabp4; experiment: Expression of PPARγ and Fabp4 in lymphedema tissue (western blot, mRNA); type: in vivo; conditions: mouse
[9] = Mus musculus, Peritoneal macrophage, 24 h
[10] = water solubility, read-out: Solubility
[11] = po, P.O, 20 mg/Kg, male CD-1 mice

O=C(Oc1ccc(C(=O)/C=C/c2ccc(OC(=O)c3ccccc3)c(OC(=O)c3ccccc3)c2)c(OC(=O)c2ccccc2)c1)c1ccccc1 [compound 8b, (E)-4-(3-(2,4-bis(benzoyloxy)phenyl)-3-oxoprop-1-en-1-yl)-1,2-phenylene dibenzoate]
TNFα production inhibitory ability compared with butein (FIG. 1) [1]: significantly better TNFα production inhibitory ability than the positive control butein treatment group | melting point: 36.7 °C

CC(C)Oc1cc(O)ccc1C(=O)/C=C/c1ccc(O)c(O)c1 [7j, (E)-3-(3,4-dihydroxyphenyl)-1-(4-hydroxy-2-isopropoxyphenyl)prop-2-en-1-one]
melting point: 80.4 °C

CC(=O)Oc1ccc(C(=O)/C=C/c2ccc(OC(C)=O)c(OC(C)=O)c2)c(OC(C)=O)c1 [compound 8a, (E)-4-(3-(2,4-diacetoxyphenyl)-3-oxoprop-1-en-1-yl)-1,2-phenylene diacetate]
IC50 [1, 9]: 12.8 ± 1.24 µM | IC50 value compared with positive control butein [1]: significantly superior IC50 values compared to butein | TNFα production inhibitory ability compared with butein (FIG. 1) [1]: significantly better TNFα production inhibitory ability than the positive control butein treatment group | melting point: 131.3 °C

O=C(/C=C/c1ccc(O)c(O)c1)c1ccc(O)cc1F [7g, (E)-3-(3,4-dihydroxyphenyl)-1-(2-fluoro-4-hydroxyphenyl)prop-2-en-1-one]
melting point: 207.8 °C

Cc1ccc(C(=O)/C=C/c2ccc(O)c(O)c2)cc1 [compound 7l, (E)-3-(3,4-dihydroxyphenyl)-1-(p-tolyl)prop-2-en-1-one]
IC50 [1, 9]: 18.6 ± 1.5 µM | IC50 value compared with positive control butein [1]: significantly superior IC50 values compared to butein | melting point: 190.9 °C

O=C(/C=C/c1ccc(O)c(O)c1)c1ccc(Cl)cc1 [compound 7m, (E)-1-(4-chlorophenyl)-3-(3,4-dihydroxyphenyl)prop-2-en-1-one]
logP (partition coefficient) [2]: 3.77 | solubility [2, 10]: 0.028 mg/mL | volume of lymphedema reduced by [3]: 53% | IC50 [1, 9]: 17.3 ± 2.11 µM | IC50 value compared with positive control butein [1]: significantly superior IC50 values compared to butein

COc1ccc(/C=C/C(=O)c2ccc(O)cc2O)cc1O [7b, (E)-1-(2,4-dihydroxyphenyl)-3-(3-hydroxy-4-methoxyphenyl)prop-2-en-1-one]
melting point: 206.4 °C

O=C(/C=C/c1ccc(O)c(O)c1)c1ccc(O)cc1O [compound 1, (E)-1-(2,4-dihydroxyphenyl)-3-(3,4-dihydroxyphenyl)prop-2-en-1-one, reference compound]
logP (partition coefficient) [2]: 0.42 | solubility [2, 10]: 0.021 mg/mL | solubility ([2]; water, read-out: water solubility): 79 µM | expression level of TNFα mRNA in lymphedema tissue (FIG. 3B) [4]: decreased | volume of lymphedema reduced by [3]: 52% | development of adipose tissue in the epidermal layer (H&E, FIG. 4A) [5]: inhibiting the development of adipose tissue in the epidermal layer | distribution of PPARγ in the epidermal layer of lymphedema tissue (FIG. 4B) [6]: suppressed | IC50 [1, 9]: 43 µM | inhibition at 20 µM ([1]; Mus musculus, Peritoneal macrophage, treated in vitro at 20 μM, read-out: efficacy (inhibition)): 10% | IC50 [1]: 43.3 ± 1.72 µM | Cmax (maximum plasma concentration) ([7]; I.V, 1 mg/Kg, male CD-1 mice): 0.041 µg/mL | Tmax ([7]; I.V, 1 mg/Kg, male CD-1 mice): 6 min | Tmax ([7]; P.O, 20 mg/Kg, male CD-1 mice): 18 min | BA (bioavailability) ([7]; P.O, 20 mg/Kg, male CD-1 mice): 15% | Tmax ([7]; P.O, 100 mg/Kg, male CD-1 mice): 18 min | BA (bioavailability) ([7]; P.O, 100 mg/Kg, male CD-1 mice): 37% | terminal half-life ([7]; mice): too short terminal half-life | AUC(0-inf) ([7]; iv, I.V, 1 mg/Kg, male CD-1 mice): 0.0067 µg·h/mL | AUC(0-inf) [7, 11]: 0.021 µg·h/mL | Cmax [7, 11]: 0.043 µg/mL | Cmax ([7]; po, P.O, 100 mg/Kg, male CD-1 mice): 0.601 µg/mL | levels of PPARγ and Fabp4 mRNA (FIG. 4D) ([8]; lymphedema tissue): superior efficacy compared to the control group | expression of PPARγ and Fabp4 in lymphedema tissue (western blot, FIG. 4C) [8]: reduced the expression of PPARγ

O=C(Oc1cc(O)ccc1C(=O)/C=C/c1ccc(O)c(O)c1)c1ccc(Cl)cc1 [compound 14d]
melting point: 102.8 °C

O=C(/C=C/c1ccc(F)c(O)c1)c1ccc(O)cc1O [7d, (E)-1-(2,4-dihydroxyphenyl)-3-(4-fluoro-3-hydroxyphenyl)prop-2-en-1-one]
melting point: 252.4 °C

Cc1cc(O)ccc1C(=O)/C=C/c1ccc(O)c(O)c1 [compound 7h, (E)-3-(3,4-dihydroxyphenyl)-1-(4-hydroxy-2-methylphenyl)prop-2-en-1-one]
IC50 [1, 9]: 48.4 ± 2.35 µM | melting point: 208.2 °C

COc1ccc(C(=O)Oc2cc(O)ccc2C(=O)/C=C/c2ccc(O)c(O)c2)cc1 [compound 14c, (E)-2-(3-(3,4-dihydroxyphenyl)acryloyl)-5-hydroxyphenyl 4-methoxybenzoate]
IC50 [1, 9]: 20.8 ± 1.62 µM | melting point: 161.1 °C

Cc1ccc(C(=O)Oc2cc(O)ccc2C(=O)/C=C/c2ccc(O)c(O)c2)cc1 [compound 14b, (E)-2-(3-(3,4-dihydroxyphenyl)acryloyl)-5-hydroxyphenyl 4-methylbenzoate]
IC50 [1, 9]: 18.9 ± 1.15 µM | melting point: 185.7 °C

COc1ccc(C(=O)/C=C/c2ccc(O)c(O)c2)c(OC)c1 [7k, (E)-3-(3,4-dihydroxyphenyl)-1-(2,4-dimethoxyphenyl)prop-2-en-1-one]
melting point: 162.9 °C
